Results: ChEMBL document CHEMBL1145498, “A systematic interaction map of validated kinase inhibitors with Ser/Thr kinases” (Proc Natl Acad Sci U S A, 2007)

target: T1, Serine/threonine-protein kinase PLK4 (Homo sapiens) (UniProt O00444)
T1 sequence (whole entry): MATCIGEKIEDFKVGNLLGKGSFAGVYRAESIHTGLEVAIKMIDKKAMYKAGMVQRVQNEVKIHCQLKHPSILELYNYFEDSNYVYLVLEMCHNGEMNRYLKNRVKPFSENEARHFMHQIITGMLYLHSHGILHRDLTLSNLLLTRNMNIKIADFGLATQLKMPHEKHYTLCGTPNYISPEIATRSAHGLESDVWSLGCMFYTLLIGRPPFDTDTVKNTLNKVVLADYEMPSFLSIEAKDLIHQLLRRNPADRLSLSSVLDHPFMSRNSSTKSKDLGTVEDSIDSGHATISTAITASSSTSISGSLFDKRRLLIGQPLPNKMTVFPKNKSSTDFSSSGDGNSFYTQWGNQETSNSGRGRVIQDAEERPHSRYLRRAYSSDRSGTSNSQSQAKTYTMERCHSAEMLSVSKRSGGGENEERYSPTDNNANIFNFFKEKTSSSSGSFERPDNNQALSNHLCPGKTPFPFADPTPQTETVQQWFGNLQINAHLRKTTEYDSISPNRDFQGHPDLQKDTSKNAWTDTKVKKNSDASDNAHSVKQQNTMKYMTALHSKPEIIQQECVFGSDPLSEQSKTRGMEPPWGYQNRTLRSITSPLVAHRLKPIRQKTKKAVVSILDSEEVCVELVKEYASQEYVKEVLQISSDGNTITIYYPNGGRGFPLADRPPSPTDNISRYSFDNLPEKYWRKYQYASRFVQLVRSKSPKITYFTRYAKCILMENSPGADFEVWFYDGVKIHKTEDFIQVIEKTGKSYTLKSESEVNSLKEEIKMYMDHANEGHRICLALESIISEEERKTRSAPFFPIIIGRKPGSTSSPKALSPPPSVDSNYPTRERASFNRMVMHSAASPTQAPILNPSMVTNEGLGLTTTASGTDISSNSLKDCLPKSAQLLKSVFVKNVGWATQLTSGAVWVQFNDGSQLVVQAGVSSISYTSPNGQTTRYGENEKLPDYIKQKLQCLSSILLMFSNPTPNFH

Row | Structure (SMILES) | ΔTm [°C]
1 | CN(c1cccnc1)c1cc2c(Nc3ccc(F)c(Cl)c3)c(C#N)cnc2cn1 | 8.2
2 | Cc1c2ccncc2c(C)c2c1[nH]c1ccccc12 [ELLIPTECINE] | 3.3
3 | CSc1nc(-c2ccc(F)cc2)c(-c2ccnc(NC(C)c3ccccc3)c2)[nH]1 (racemic) | 0.3

target: Mitogen-activated protein kinase 11 (Homo sapiens, UniProt Q15759)
Sequence (Q15759 whole entry): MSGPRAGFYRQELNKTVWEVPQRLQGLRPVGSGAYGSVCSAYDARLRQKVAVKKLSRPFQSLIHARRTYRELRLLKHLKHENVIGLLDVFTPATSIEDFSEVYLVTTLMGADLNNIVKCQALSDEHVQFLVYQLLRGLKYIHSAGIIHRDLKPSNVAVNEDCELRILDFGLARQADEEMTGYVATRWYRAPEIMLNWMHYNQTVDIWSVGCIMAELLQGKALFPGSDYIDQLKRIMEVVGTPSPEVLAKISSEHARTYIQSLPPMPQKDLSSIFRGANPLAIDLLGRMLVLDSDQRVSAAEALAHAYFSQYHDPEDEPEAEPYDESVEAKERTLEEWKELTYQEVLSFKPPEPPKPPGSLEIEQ

Row | Structure (SMILES) | ΔTm [°C]
4 | CN(c1cccnc1)c1cc2c(Nc3ccc(F)c(Cl)c3)c(C#N)cnc2cn1 | 0.7
5 | Cc1c2ccncc2c(C)c2c1[nH]c1ccccc12 [ELLIPTECINE] | 0.6
6 | CSc1nc(-c2ccc(F)cc2)c(-c2ccnc(NC(C)c3ccccc3)c2)[nH]1 (racemic) | 9.5

target: Serine/threonine-protein kinase PAK 5 (Homo sapiens) (UniProt Q9P286)

Row | Structure (SMILES) | ΔTm [°C]
7 | CN(c1cccnc1)c1cc2c(Nc3ccc(F)c(Cl)c3)c(C#N)cnc2cn1 | 1
8 | Cc1c2ccncc2c(C)c2c1[nH]c1ccccc12 [ELLIPTECINE] | 0.9
9 | CSc1nc(-c2ccc(F)cc2)c(-c2ccnc(NC(C)c3ccccc3)c2)[nH]1 (racemic) | 0

target: T2, Serine/threonine-protein kinase Nek2 (Homo sapiens) (UniProt P51955)
T2 sequence (whole entry): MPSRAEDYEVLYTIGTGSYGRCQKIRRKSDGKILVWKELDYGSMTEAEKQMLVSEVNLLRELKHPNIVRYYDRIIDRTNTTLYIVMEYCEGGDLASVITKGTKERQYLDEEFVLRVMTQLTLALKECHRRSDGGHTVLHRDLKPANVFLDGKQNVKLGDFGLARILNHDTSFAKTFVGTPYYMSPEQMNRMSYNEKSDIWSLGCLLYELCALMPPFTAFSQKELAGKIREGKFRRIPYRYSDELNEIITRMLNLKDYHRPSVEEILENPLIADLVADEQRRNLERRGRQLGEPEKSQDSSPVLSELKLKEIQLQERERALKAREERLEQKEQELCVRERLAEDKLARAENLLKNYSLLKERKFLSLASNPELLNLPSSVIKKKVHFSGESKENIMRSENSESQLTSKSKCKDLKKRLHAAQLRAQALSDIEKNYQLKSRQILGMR

Row | Structure (SMILES) | ΔTm [°C]
10 | CN(c1cccnc1)c1cc2c(Nc3ccc(F)c(Cl)c3)c(C#N)cnc2cn1 | 0.7
11 | Cc1c2ccncc2c(C)c2c1[nH]c1ccccc12 [ELLIPTECINE] | 0.5
12 | CSc1nc(-c2ccc(F)cc2)c(-c2ccnc(NC(C)c3ccccc3)c2)[nH]1 (racemic) | 0.9

target: STE20-like serine/threonine-protein kinase (Homo sapiens) (UniProt Q9H2G2)
Sequence (Q9H2G2 whole entry, looked up): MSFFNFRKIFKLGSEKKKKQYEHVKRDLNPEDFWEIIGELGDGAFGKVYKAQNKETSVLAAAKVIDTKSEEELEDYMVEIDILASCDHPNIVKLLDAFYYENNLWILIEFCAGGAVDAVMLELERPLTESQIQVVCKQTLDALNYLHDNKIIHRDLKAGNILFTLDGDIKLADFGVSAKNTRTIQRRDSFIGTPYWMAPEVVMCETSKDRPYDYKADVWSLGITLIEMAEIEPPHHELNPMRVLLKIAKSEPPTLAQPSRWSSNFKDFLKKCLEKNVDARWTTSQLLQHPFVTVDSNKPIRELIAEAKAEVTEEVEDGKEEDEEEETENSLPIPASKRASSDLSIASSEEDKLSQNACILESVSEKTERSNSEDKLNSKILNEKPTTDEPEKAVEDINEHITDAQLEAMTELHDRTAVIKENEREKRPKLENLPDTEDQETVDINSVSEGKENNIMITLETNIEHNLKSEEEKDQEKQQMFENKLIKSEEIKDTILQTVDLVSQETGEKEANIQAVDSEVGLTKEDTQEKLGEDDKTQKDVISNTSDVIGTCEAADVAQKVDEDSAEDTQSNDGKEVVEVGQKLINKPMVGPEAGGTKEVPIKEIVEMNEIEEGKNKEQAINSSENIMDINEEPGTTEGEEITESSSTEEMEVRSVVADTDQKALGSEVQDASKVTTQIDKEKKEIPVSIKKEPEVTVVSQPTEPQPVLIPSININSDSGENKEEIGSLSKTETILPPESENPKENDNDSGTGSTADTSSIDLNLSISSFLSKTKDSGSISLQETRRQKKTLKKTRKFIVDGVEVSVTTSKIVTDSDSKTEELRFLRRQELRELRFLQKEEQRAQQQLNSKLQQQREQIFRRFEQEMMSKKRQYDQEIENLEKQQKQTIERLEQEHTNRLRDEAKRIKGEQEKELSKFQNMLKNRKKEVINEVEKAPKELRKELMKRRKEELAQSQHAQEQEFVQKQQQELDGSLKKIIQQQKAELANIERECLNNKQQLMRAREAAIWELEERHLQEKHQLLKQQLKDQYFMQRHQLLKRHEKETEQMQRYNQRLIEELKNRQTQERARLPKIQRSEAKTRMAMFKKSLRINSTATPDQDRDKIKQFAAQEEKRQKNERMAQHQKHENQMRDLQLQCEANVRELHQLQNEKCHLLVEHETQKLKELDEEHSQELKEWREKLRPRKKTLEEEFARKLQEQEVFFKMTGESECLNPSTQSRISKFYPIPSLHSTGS

Row | Structure (SMILES) | ΔTm [°C]
13 | CN(c1cccnc1)c1cc2c(Nc3ccc(F)c(Cl)c3)c(C#N)cnc2cn1 | 4.2
14 | Cc1c2ccncc2c(C)c2c1[nH]c1ccccc12 [ELLIPTECINE] | 4.1
15 | CSc1nc(-c2ccc(F)cc2)c(-c2ccnc(NC(C)c3ccccc3)c2)[nH]1 (racemic) | 0.8

target: Ribosomal protein S6 kinase alpha-3 (Homo sapiens) (UniProt P51812)
Sequence (P51812 whole entry): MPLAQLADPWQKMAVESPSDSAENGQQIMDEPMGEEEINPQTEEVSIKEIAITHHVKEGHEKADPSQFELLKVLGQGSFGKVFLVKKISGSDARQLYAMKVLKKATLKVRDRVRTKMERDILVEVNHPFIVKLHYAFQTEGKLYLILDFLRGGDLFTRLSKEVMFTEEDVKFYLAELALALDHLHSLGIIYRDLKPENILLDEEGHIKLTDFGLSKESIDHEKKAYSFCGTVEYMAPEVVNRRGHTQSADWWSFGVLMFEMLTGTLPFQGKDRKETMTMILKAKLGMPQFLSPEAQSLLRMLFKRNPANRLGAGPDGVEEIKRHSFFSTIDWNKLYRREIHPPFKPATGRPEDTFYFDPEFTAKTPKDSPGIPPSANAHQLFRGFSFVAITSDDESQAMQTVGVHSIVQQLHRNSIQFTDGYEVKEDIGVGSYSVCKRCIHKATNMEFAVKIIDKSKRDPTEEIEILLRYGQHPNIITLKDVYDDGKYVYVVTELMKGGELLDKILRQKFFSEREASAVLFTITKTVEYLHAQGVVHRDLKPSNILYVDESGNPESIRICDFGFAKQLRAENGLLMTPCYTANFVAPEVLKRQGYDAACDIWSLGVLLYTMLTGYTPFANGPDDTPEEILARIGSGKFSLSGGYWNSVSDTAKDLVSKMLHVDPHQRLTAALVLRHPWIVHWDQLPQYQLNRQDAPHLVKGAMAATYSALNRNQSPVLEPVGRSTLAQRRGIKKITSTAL

Row | Structure (SMILES) | ΔTm [°C]
16 | CN(c1cccnc1)c1cc2c(Nc3ccc(F)c(Cl)c3)c(C#N)cnc2cn1 | 1.7
17 | Cc1c2ccncc2c(C)c2c1[nH]c1ccccc12 [ELLIPTECINE] | 1.8
18 | CSc1nc(-c2ccc(F)cc2)c(-c2ccnc(NC(C)c3ccccc3)c2)[nH]1 (racemic) | 0.2

target: Glycogen synthase kinase-3 beta (Homo sapiens, UniProt P49841)
Sequence (P49841 whole entry, looked up): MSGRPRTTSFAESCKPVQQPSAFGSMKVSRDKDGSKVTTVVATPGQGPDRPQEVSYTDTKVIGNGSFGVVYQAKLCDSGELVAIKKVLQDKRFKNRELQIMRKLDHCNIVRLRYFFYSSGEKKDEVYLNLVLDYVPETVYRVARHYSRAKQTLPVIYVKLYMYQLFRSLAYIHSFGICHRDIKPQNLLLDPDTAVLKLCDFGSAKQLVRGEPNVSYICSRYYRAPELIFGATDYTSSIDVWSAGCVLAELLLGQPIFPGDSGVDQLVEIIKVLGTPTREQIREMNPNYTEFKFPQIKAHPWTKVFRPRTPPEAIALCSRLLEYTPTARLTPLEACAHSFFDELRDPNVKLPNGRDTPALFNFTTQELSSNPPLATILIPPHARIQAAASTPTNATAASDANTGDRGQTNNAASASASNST

Row | Structure (SMILES) | ΔTm [°C]
19 | CN(c1cccnc1)c1cc2c(Nc3ccc(F)c(Cl)c3)c(C#N)cnc2cn1 | 6.3
20 | Cc1c2ccncc2c(C)c2c1[nH]c1ccccc12 [ELLIPTECINE] | 5.6
21 | CSc1nc(-c2ccc(F)cc2)c(-c2ccnc(NC(C)c3ccccc3)c2)[nH]1 (racemic) | 0

target: T3, 3-phosphoinositide-dependent protein kinase 1 (Homo sapiens) (UniProt O15530)
T3 sequence (whole entry): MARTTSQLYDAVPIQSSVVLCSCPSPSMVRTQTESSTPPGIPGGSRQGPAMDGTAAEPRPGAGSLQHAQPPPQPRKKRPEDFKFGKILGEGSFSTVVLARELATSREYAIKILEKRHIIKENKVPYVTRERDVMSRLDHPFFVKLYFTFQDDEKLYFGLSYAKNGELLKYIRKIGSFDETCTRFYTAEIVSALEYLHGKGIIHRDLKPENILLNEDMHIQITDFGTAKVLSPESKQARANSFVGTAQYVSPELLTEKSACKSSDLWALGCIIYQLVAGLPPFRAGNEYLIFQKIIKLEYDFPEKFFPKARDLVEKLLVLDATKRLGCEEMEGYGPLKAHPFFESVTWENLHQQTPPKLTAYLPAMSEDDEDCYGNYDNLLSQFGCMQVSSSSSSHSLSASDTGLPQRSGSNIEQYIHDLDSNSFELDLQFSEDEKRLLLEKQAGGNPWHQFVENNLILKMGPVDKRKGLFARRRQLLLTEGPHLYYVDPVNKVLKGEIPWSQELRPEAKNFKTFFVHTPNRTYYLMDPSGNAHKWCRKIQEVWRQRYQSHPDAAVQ

Row | Structure (SMILES) | ΔTm [°C]
22 | CN(c1cccnc1)c1cc2c(Nc3ccc(F)c(Cl)c3)c(C#N)cnc2cn1 | 1.2
23 | Cc1c2ccncc2c(C)c2c1[nH]c1ccccc12 [ELLIPTECINE] | 8.6
24 | CSc1nc(-c2ccc(F)cc2)c(-c2ccnc(NC(C)c3ccccc3)c2)[nH]1 (racemic) | -0.9

target: Calcium/calmodulin-dependent protein kinase type 1D (Homo sapiens) (UniProt Q8IU85)
Sequence (Q8IU85 whole entry, looked up): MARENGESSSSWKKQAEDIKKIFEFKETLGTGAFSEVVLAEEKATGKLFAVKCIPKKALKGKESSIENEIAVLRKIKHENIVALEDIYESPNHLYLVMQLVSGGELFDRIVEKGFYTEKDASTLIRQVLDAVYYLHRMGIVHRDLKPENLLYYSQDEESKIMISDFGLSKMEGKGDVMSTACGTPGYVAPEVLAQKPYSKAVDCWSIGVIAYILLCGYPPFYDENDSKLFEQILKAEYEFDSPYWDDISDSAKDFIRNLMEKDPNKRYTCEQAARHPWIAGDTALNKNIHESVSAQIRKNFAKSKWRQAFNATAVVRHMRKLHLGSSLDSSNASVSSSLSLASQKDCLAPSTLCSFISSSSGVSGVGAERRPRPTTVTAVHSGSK

Row | Structure (SMILES) | ΔTm [°C]
25 | CN(c1cccnc1)c1cc2c(Nc3ccc(F)c(Cl)c3)c(C#N)cnc2cn1 | 1.9
26 | Cc1c2ccncc2c(C)c2c1[nH]c1ccccc12 [ELLIPTECINE] | 1.2
27 | CSc1nc(-c2ccc(F)cc2)c(-c2ccnc(NC(C)c3ccccc3)c2)[nH]1 (racemic) | 0.5

target: Serine/threonine-protein kinase pim-1 (Homo sapiens) (UniProt P11309)

Row | Structure (SMILES) | ΔTm [°C]
28 | CN(c1cccnc1)c1cc2c(Nc3ccc(F)c(Cl)c3)c(C#N)cnc2cn1 | 0.1
29 | Cc1c2ccncc2c(C)c2c1[nH]c1ccccc12 [ELLIPTECINE] | 4.8
30 | CSc1nc(-c2ccc(F)cc2)c(-c2ccnc(NC(C)c3ccccc3)c2)[nH]1 (racemic) | -0.4

target: Serine/threonine-protein kinase Chk2 (Homo sapiens, UniProt O96017)
Sequence (O96017 whole entry): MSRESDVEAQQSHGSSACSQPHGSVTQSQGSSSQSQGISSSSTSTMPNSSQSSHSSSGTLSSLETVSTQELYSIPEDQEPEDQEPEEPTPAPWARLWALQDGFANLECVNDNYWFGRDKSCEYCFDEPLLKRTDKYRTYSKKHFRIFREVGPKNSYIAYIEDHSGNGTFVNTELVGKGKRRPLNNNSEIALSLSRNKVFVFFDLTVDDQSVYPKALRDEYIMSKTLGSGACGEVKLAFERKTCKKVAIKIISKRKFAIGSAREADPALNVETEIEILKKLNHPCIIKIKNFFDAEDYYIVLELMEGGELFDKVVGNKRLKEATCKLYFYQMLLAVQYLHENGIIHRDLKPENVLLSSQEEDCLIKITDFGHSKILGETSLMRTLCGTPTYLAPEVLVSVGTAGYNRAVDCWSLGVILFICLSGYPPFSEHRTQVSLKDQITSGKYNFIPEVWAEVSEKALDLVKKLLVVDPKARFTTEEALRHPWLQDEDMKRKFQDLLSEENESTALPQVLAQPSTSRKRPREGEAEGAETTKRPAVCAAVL

Row | Structure (SMILES) | ΔTm [°C]
31 | CN(c1cccnc1)c1cc2c(Nc3ccc(F)c(Cl)c3)c(C#N)cnc2cn1 | 5
32 | Cc1c2ccncc2c(C)c2c1[nH]c1ccccc12 [ELLIPTECINE] | 2
33 | CSc1nc(-c2ccc(F)cc2)c(-c2ccnc(NC(C)c3ccccc3)c2)[nH]1 (racemic) | 0.7

target: Dual specificity protein kinase CLK1 (Homo sapiens) (UniProt P49759)
Sequence (P49759 whole entry, looked up): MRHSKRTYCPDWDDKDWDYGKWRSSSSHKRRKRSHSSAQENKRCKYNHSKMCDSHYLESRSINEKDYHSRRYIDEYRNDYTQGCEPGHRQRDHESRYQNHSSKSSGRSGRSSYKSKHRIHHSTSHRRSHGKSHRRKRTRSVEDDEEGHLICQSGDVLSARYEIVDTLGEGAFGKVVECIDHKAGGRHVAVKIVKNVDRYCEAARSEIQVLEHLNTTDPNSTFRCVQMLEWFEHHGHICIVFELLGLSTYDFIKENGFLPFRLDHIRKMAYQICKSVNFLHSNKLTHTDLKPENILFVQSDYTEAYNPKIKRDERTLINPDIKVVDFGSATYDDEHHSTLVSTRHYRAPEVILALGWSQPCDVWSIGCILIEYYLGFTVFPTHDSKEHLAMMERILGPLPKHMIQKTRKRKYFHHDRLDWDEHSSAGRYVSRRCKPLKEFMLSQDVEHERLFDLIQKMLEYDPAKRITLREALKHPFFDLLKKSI

Row | Structure (SMILES) | ΔTm [°C]
34 | CN(c1cccnc1)c1cc2c(Nc3ccc(F)c(Cl)c3)c(C#N)cnc2cn1 | 4.9
35 | Cc1c2ccncc2c(C)c2c1[nH]c1ccccc12 [ELLIPTECINE] | 6.6
36 | CSc1nc(-c2ccc(F)cc2)c(-c2ccnc(NC(C)c3ccccc3)c2)[nH]1 (racemic) | 0

target: Serine/threonine-protein kinase 26 (Homo sapiens) (UniProt Q9P289)
Sequence (Q9P289 2-416 limits assumed): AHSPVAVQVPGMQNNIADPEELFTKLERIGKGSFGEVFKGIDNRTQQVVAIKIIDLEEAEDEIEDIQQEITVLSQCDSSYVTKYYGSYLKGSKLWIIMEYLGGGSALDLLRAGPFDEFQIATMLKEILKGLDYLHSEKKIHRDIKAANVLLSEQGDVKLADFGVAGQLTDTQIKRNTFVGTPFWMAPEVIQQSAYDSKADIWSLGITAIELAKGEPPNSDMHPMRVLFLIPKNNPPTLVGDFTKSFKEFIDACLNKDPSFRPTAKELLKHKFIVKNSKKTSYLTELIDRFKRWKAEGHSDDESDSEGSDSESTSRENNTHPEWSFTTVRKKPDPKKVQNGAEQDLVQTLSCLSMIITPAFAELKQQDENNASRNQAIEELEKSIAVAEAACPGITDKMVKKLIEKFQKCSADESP

Row | Structure (SMILES) | ΔTm [°C]
37 | CN(c1cccnc1)c1cc2c(Nc3ccc(F)c(Cl)c3)c(C#N)cnc2cn1 | 0.7
38 | Cc1c2ccncc2c(C)c2c1[nH]c1ccccc12 [ELLIPTECINE] | 4.6
39 | CSc1nc(-c2ccc(F)cc2)c(-c2ccnc(NC(C)c3ccccc3)c2)[nH]1 (racemic) | -0.1

target: Cyclin-dependent kinase 6 (Homo sapiens) (UniProt Q00534)
Sequence (Q00534 whole entry): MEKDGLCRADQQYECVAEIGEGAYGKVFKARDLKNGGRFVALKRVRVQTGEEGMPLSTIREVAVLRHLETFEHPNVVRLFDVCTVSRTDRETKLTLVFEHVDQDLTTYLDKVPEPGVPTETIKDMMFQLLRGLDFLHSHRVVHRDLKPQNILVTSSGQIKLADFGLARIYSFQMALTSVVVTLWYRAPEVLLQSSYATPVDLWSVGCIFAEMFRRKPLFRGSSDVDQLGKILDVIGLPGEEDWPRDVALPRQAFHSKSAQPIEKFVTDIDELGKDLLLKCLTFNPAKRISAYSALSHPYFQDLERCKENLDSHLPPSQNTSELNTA

Row | Structure (SMILES) | ΔTm [°C]
40 | CN(c1cccnc1)c1cc2c(Nc3ccc(F)c(Cl)c3)c(C#N)cnc2cn1 | -0.6
41 | Cc1c2ccncc2c(C)c2c1[nH]c1ccccc12 [ELLIPTECINE] | 0.2
42 | CSc1nc(-c2ccc(F)cc2)c(-c2ccnc(NC(C)c3ccccc3)c2)[nH]1 (racemic) | 0

target: Cyclin-dependent kinase-like 1 (Homo sapiens) (UniProt Q00532)

Row | Structure (SMILES) | ΔTm [°C]
43 | CN(c1cccnc1)c1cc2c(Nc3ccc(F)c(Cl)c3)c(C#N)cnc2cn1 | 5.4
44 | Cc1c2ccncc2c(C)c2c1[nH]c1ccccc12 [ELLIPTECINE] | 0.7
45 | CSc1nc(-c2ccc(F)cc2)c(-c2ccnc(NC(C)c3ccccc3)c2)[nH]1 (racemic) | 0.8
